Results: patent US20240018138A1, “PYRIDO[4,3-b]INDOLE DERIVATIVES AND THEIR USE AS PHARMACEUTICALS” (Ventus Therapeutics U.S., Inc., priority 2020, published 2024)

Target: h-cGAS (Homo sapiens (Human), UniProt Q8N884)
Experiment: h-cGAS Kinase-Glo assay
Assay type: biochemical
Details: Kinase-Glo Max; 40 nM h-cGAS, 100 uM ATP, 100 uM GTP, 25 nM dsDNA, 2 h incubation

Sequence of h-cGAS (Q8N884 whole entry): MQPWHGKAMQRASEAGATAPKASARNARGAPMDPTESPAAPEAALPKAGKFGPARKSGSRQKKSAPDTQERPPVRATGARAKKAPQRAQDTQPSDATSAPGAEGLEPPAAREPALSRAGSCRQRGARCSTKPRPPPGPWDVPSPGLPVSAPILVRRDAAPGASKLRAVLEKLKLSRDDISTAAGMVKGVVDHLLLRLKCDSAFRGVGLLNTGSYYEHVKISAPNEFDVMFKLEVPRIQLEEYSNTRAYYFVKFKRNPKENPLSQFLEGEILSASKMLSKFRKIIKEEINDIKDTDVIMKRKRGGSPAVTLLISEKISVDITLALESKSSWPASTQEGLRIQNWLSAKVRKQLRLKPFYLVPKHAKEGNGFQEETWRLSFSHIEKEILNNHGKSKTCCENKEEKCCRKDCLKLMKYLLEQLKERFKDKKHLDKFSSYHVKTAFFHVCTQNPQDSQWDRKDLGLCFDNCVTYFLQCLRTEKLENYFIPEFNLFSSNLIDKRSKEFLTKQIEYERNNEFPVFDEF

| IC50 [nM] | Compound |
| --- | --- |
| 51.7 | COCC(=O)N1[C@H](C)Cc2[nH]c3c(Cl)c(Cl)ccc3c2[C@@H]1C [Compound 104] |
| 3820 | COCC(=O)N1CCc2[nH]c3c(Cl)c(Cl)cc(-c4ccn(C)n4)c3c2[C@H]1C [Compound 105] |
| 4550 | COCC(=O)N1CCc2[nH]c3c(Cl)c(Cl)cc(-c4ccn(C)n4)c3c2[C@@H]1C [Compound 106] |
| 51.8 | COCC(=O)N1CCc2[nH]c3c(Cl)c(F)ccc3c2[C@H]1C [Compound 107] |
| 62.3 | COCC(=O)N1[C@@H](C)Cc2[nH]c3c(Cl)c(Cl)ccc3c2[C@@H]1C [Compound 108] |
| 15.1 | COCC(=O)N1[C@H](C)Cc2[nH]c3c(Cl)c(Cl)ccc3c2[C@@H]1C [Compound 109] |
| 2230 | COCC(=O)N1Cc2c([nH]c3c(Cl)c(Cl)ccc23)C2CCCCC21 (centres unmarked) [Compound 110] |
| 401 | COCC(=O)N1Cc2c([nH]c3c(Cl)c(Cl)ccc23)C[C@@H]1C [Compound 111] |
| 236 | COCC(=O)N1Cc2c([nH]c3c(Cl)c(Cl)ccc23)C[C@H]1C [Compound 112] |
| 4230 | COCC(=O)N1Cc2c([nH]c3c(Cl)c(Cl)ccc23)CC1Cc1ccccc1 (centres unmarked) [Compound 113] |
| 718 | COCC(=O)N1Cc2c([nH]c3c(Cl)c(Cl)ccc23)C[C@@H]1C(C)C [Compound 114] |
| 1380 | COCC(=O)N1Cc2c([nH]c3c(Cl)c(Cl)ccc23)C[C@H]1C(F)(F)F [Compound 115] |
| 157 | COCC(=O)N1Cc2c([nH]c3c(Cl)c(Cl)cc(-c4ccn(C)n4)c23)C[C@H]1C [Compound 116] |
| 221 | COCC(=O)N1Cc2c([nH]c3c(Cl)c(Cl)cc(-c4ccn(C)n4)c23)C[C@@H]1C [Compound 117] |
| 316 | COCC(=O)N1Cc2c([nH]c3c(F)c(Cl)ccc23)C[C@@H]1C [Compound 118] |
| 470 | CC[C@H]1Cc2[nH]c3c(Cl)c(Cl)ccc3c2CN1C(=O)COC [Compound 119] |
| 361 | COCC(=O)N1Cc2c([nH]c3c(F)c(Cl)ccc23)C[C@H]1C [Compound 120] |
| 7630 | COCC(=O)N1Cc2c([nH]c3c(Br)c(Cl)ccc23)C[C@H]1C [Compound 121] |
| 205 | COCC(=O)N1Cc2c([nH]c3c(Cl)c(Br)ccc23)C[C@H]1C [Compound 122] |
| 133 | COCC(=O)N1Cc2c([nH]c3c(Br)c(Cl)ccc23)C[C@@H]1C [Compound 123] |
| 1330 | COCC(=O)N1Cc2c([nH]c3c(Cl)c(F)ccc23)C[C@H]1C [Compound 124] |
| 756 | COCC(=O)N1Cc2c([nH]c3c(Cl)c(C)ccc23)C[C@@H]1C [Compound 125] |
| 387 | COCC(=O)N1Cc2c([nH]c3c(F)c(Br)ccc23)C[C@H]1C [Compound 126] |
